One data set relates to Myopia Mice Model. Kind of data set: Suppression of axial length elongation in myopia mice model (spectacle lens-induced, eyedrop). The data set is classed as in vivo, mice (C57BL/6J). Particulars: 7 μL topically once a day, post-natal day 33 to 61, -15D lens, mouse. The procedure: Test 2. Test About Suppression of Axial Length Elongation in Myopia Mice Model
Tiotropium bromide hydrate and glycerin were dissolved in water for injection to prepare 0.0001% (w/v) and 0.01% (w/v) tiotropium ophthalmic solutions without adjusting pH.
In a similar way, atropine sulfate hydrate and glycerin were dissolved in water for injection to prepare 0.1% (w/v) atropine ophthalmic solution without adjusting pH. The vehicle (control) was isotonic water which was prepared with water for injection and glycerin.
Spectacle lens-induced myopia model was established by placing −15D hard lens on the right eye of mice (C57BL/6J), which was served as the experimental eye, at post-natal days 18. Briefly, a −15D lens was glued to an annulus (with 8 mm base curve) of Velcro. This mating piece was then attached to the Velcro that had been previously glued to the hair around the right experimental eye using a cyanoacrylate. An air gap of 1.5 mm existed between the back part of the lens and the anterior surface of the cornea.
Ocular biometry such as axial length measurement was done using in vivo Optical Low Coherence Interferometry (OLCI-AcMaster). The axial length was measured at post-natal days 33 and 61.
The ratio for suppressing the axial length elongation with each example was calculated by the following equation: […]
Tiotropium (at 0.0001% or 0.01%) or atropine (at 0.1%) was administered once a day post-natal day 33 until day 61 in the spectacle lens-induced myopia model. 7 μL of each drug was administered topically to the right eye in dim red light at the each day.

Data set [1] relates to pupil diameter of the mice. Kind of data set: Evaluation of mydriatic action (pupil diameter after a single eyedrop). The data set is classed as in vivo. Particulars: mouse; for Pupil diameter before administration (mm): before the eyedrop (baseline); for Maximum pupil diameter (mm) / Measurement time of maximum pupil diameter: single dose 5 μL to both eyes; for Maximum pupil diameter (mm): longest average among 1, 2, 4 and 24 h. The procedure: Test 3. Evaluation of Mydriatic Action
Tiotropium bromide hydrate and glycerin were dissolved in water for injection to prepare 0.01% (w/v), 0.1% (w/v), and 2% (w/v) tiotropium ophthalmic solutions without adjusting pH.
In a similar way, atropine sulfate hydrate and glycerin were dissolved in water for injection to prepare 0.01% (w/v), and 0.1% (w/v) atropine ophthalmic solutions without adjusting pH.
A single dose (5 μL) of each prepared ophthalmic solution was administered to both eyes of mice (6 eyes of 3 mice per each ophthalmic solution). Before the administration (eyedrop), and 1, 2, 4 and 24 hours after the administration, each pupil diameter of the mice was measured. The measured pupil diameters of the mice at each measurement time per each test sample were averaged to obtain each average value as each average pupil diameter. Among each average pupil diameter at each measurement time, the longest diameter was defined as the maximum pupil diameter.

The next data set has as its system Myopia Chick Model. The data set can be described thus: Suppression of axial length elongation in myopia chick model (goggle-induced, intravitreal administration). The class given is in vivo, chicks (white leghorns). The settings on record: 20 μL intravitreally on day 0, 2 and 4, axial length measured on day 6. The procedure: Test 1. Test About Suppression of Axial Length Elongation in Myopia Chick Model
Tiotropium bromide hydrate was dissolved in saline to prepare 0.1 mM and 10 mM tiotropium solutions.
And, atropine sulfate hydrate was dissolved in saline to prepare 100 mM atropine solution as a reference example.
As a control, saline was used.
A test tube having a diameter of 18 mm was cut off at the level of 10 mm from the bottom, and the cutting circle of the cut-off bottom part was bonded to a flat rubber packing with an adhesive agent to prepare a lens (goggle). 7-day-old chicks (white leghorns) were obtained, and the prepared goggle was attached to the right eye of each chick with an adhesive agent to induce myopia to the chicks. The left eye thereof was its control.
To each of the tiotropium administration groups, 20 μL of each prepared tiotropium solution was intravitreally administered on the day that the goggle was fixed (on day 0), on day 2, and on day 4. […]
On day 6 from the myopia induction, the axial length of right and left eyeballs was measured with a ultrasound axial length measurement ECHOSCAN US-500 (NIDEK CO., LTD.) (A-scan). The difference of axial lengths and the suppression rate of the axial length elongation were calculated by the following formulae.

The mark [2] stands for this setting: 0.01% (w/v) ophthalmic solution group.
[3] abbreviates: 0.01% (w/v) ophthalmic solution.
Where [4] appears, read: 0.1% (w/v) ophthalmic solution group.
Setting [5] is: 0.0001% (w/v) ophthalmic solution.

Counter-ions that a name gives are not always drawn.

`CN1[C@@H]2CC[C@H]1C[C@@H](OC(=O)C(CO)c1ccccc1)C2` (some centres unmarked) [atropine, atropine sulfate hydrate]: the “Mean (μm) change in the axial length” value in the data set with Myopia Mice Model (0.1% (w/v) ophthalmic solution) was found to be 111.61 μm. The “Suppression rate (%) of the axial length elongation” value with Myopia Mice Model (0.1% (w/v) ophthalmic solution) is 29.50%; in the data set with Myopia Chick Model (100 mM atropine solution (reference example)), 83%. Further, the “Pupil diameter before administration (mm)” value came to 0.42 mm in data set [1] (setting [2]) and 0.40 mm in data set [1] (setting [4]). The “Maximum pupil diameter (mm)” value in data set [1] (setting [3]) was 1.43 mm; in data set [1] (0.1% (w/v) ophthalmic solution), 1.96 mm. Further, the “Measurement time of maximum pupil diameter” value is reported as 1 h in data set [1] (setting [3]) and 2 h in data set [1] (0.1% (w/v) ophthalmic solution).

`C[N+]1(C)C2CC(OC(=O)C(O)(c3cccs3)c3cccs3)CC1C1OC12` (stereo not drawn) [tiotropium, (1α,2β,4β,5α,7β)-7-[(hydroxydi-2-thienylacetyl)oxy]-9,9-dimethyl-3-oxa-9-azoniatricyclo[3.3.1.0^2,4]nonane bromide monohydrate]: the “Mean (μm) change in the axial length” value in the data set with Myopia Mice Model (setting [5]) was 135.84 μm; with Myopia Mice Model (setting [3]), 112.95 μm. In addition, the entries for the “Suppression rate (%) of the axial length elongation” value in the data set on Myopia Mice Model (setting [5]), in the data set with Myopia Mice Model (setting [3]) and in the data set on Myopia Chick Model (0.1 mM solution) were 14.20%, 28.66% and 45%, respectively. Also, the “Pupil diameter before administration (mm)” value in data set [1] (setting [2]) came out at 0.36 mm; in data set [1] (setting [4]), 0.43 mm; in data set [1] (2% (w/v) ophthalmic solution group), 0.36 mm. The “Maximum pupil diameter (mm)” value worked out at 1.24 mm in data set [1] (setting [3]), 2.23 mm in data set [1] (0.1% (w/v) ophthalmic solution) and 2.15 mm in data set [1] (2% (w/v) ophthalmic solution). The “Measurement time of maximum pupil diameter” value in data set [1] (setting [3]) was found to be 4 h; in data set [1] (0.1% (w/v) ophthalmic solution) it was 2 h; in data set [1] (2% (w/v) ophthalmic solution), 1 h.

The values are drawn from patent US11642350B2, “Agent for preventing myopia, treating myopia, and/or preventing myopia progression comprising tiotropium as active ingredient” (priority 2017, dated 2023).
